Measurements reported in the supplement of paper PMC11208160.

test: recombinant barcode read abundance after kanamycin selection (control-corrected) (log10(CPM+1)); higher = more efficient recombination; sequences stand for … in AGTGCAGAGAAAATCGGCCAGTTTTCTCTGCCTGCAGTCCGCATGCCGT…AGATTTATGCAGCGGACTGCCTTTCTCCCAAAGTGATAAACCGGACAGTATCATGGACCGGTTTTCCCGGTAATCCGTATTTGCAAGGTTGGTTTCACT; site = the 11-nt target
How it was run: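 Recombination efficiency was calculated from barcode counts at recombinant junctions, normalized to counts per million, averaged and corrected by the control. Each value is given as log10(CPM+1). The constructs were Gibson-cloned oligos (promoter, target, barcode, J23119-driven first 104 bridge RNA bases) in a vector with the remaining 73 bp and a T7-inducible recombinase, co-electroporated into E. coli with a donor plasmid and plated in duplicate on chloramphenicol/ampicillin LB agar (control) or chloramphenicol/ampicillin/kanamycin with 0.1 mM IPTG.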
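Note: IS621 recombinase and bridge RNA in Escherichia coli cells.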

Row | Sequence | recombinant barcode read abundance (log10)
1 | TTACCTACTTGGGTTCTAACCTGTTGCCT (site TTACCCACTAG) | 0.0698
2 | TTACCTACTTGGGTTCTAACCTGTTGCCT (site TTACCGACTAG) | 0.278
3 | TTACCTACTTGGGTTCTAACCTGTTGCCT (site TTACCTACTAG) | 0.802
4 | TTACGAGCTTGGGTTCTAACCTGTTGCCT (site TCACTAGCTAG) | 0.131
5 | TTACGAGCTTGGGTTCTAACCTGTTGCCT (site TTACGAGCTAG) | 1.08
6 | TTACGCACTTGGGTTCTAACCTGTTGCCT (site TAACCCACTAG) | 0.264
7 | TTACGCACTTGGGTTCTAACCTGTTGCCT (site TTACGCACTAG) | 1.34
8 | TTACGCGCTTGGGTTCTAACCTGTTGCGG (site TTACGAGCTCC) | 0.258
9 | TTACGCGCTTGGGTTCTAACCTGTTGCGG (site TTACGCGCTCC) | 1.67
10 | TTACGCGCTTGGGTTCTAACCTGTTGCGG (site TTACGGGCTCC) | 0.0728
11 | TTACGCGCTTGGGTTCTAACCTGTTGCGG (site TTACGTGCTCC) | 0.0492
12 | TTAGACTCTTGGGTTCTAACCTGTTGCCA (site TTAGACTCTTA) | 0.0659
13 | TTAGACTCTTGGGTTCTAACCTGTTGCCA (site TTAGACTCTTG) | 1.06
14 | TTAGCTTCTTGGGTTCTAACCTGTTGCCT (site TTAGCATCTAG) | 0.078
15 | TTAGCTTCTTGGGTTCTAACCTGTTGCCT (site TTAGCCTCTAG) | 0.0176
16 | TTAGCTTCTTGGGTTCTAACCTGTTGCCT (site TTAGCGTCTAG) | 0.0371
17 | TTAGCTTCTTGGGTTCTAACCTGTTGCCT (site TTAGCTTCTAG) | 0.163
18 | TTATACACTTGGGTTCTAACCTGTTGCAG (site CAGCGGTCTTC) | 0.0563
19 | TTATACACTTGGGTTCTAACCTGTTGCAG (site TTATACACTCT) | 1.98
20 | TTATGAGCTTGGGTTCTAACCTGTTGCCG (site ATATGAGCTTG) | 0.012
21 | TTATGAGCTTGGGTTCTAACCTGTTGCCG (site TTATGAGCTCG) | 1.2
22 | TTATGGTCTTGGGTTCTAACCTGTTGCTA (site TCTTGGTCTTA) | 0.257

Row | Sequence | recombinant barcode read abundance (log10)
23 | TTATGGTCTTGGGTTCTAACCTGTTGCTA (site TTATGGTCTTA) | 0.705
24 | TTATTGTCTTGGGTTCTAACCTGTTGCCT (site TTATTGTCTAG) | 1.37
25 | TTATTGTCTTGGGTTCTAACCTGTTGCCT (site TTCTTGCCTAG) | 0.024
26 | TTCAAACCTTGGGTTCTAACCTGTTGCCT (site TTCAAAACTAG) | 0.0532
27 | TTCAAACCTTGGGTTCTAACCTGTTGCCT (site TTCAAACCTAG) | 0.612
28 | TTCAAACCTTGGGTTCTAACCTGTTGCCT (site TTCAAAGCTAG) | 0.0476
29 | TTCAAACCTTGGGTTCTAACCTGTTGCCT (site TTCAAATCTAG) | 0.115
30 | TTCAAATCTTGGGTTCTAACCTGTTGCCT (site TTCAAAACTAG) | 0.0847
31 | TTCAAATCTTGGGTTCTAACCTGTTGCCT (site TTCAAACCTAG) | 0.242
32 | TTCAAATCTTGGGTTCTAACCTGTTGCCT (site TTCAAAGCTAG) | 0.182
33 | TTCAAATCTTGGGTTCTAACCTGTTGCCT (site TTCAAATCTAG) | 0
34 | TTCAAGCCTTGGGTTCTAACCTGTTGCCT (site TTCAAGACTAG) | 0.0598
35 | TTCAAGCCTTGGGTTCTAACCTGTTGCCT (site TTCAAGCCTAG) | 0.329
36 | TTCAAGCCTTGGGTTCTAACCTGTTGCCT (site TTCAAGGCTAG) | 0.0261
37 | TTCAAGCCTTGGGTTCTAACCTGTTGCCT (site TTCAAGTCTAG) | 0.0767
38 | TTCACACCTTGGGTTCTAACCTGTTGCCT (site TTCACACCTAG) | 0.385
39 | TTCACACCTTGGGTTCTAACCTGTTGCCT (site TTCACAGCTAG) | 0.00569
40 | TTCAGGGCTTGGGTTCTAACCTGTTGCAG (site AGAGCCTCTTA) | 0.111
41 | TTCAGGGCTTGGGTTCTAACCTGTTGCAG (site TTCAGGGCTCT) | 1.99
42 | TTCATACCTTGGGTTCTAACCTGTTGCTT (site GTCTTACCTAA) | 0.0129
43 | TTCATACCTTGGGTTCTAACCTGTTGCTT (site TTCATACCTAA) | 0.0848
